# Where no end group is shown, it is not given here.
# Assays:
# thrombin [1] = biological target: T1, thrombin (Homo sapiens, UniProt P00734); assay: Fluorogenic NW assay with recombinant thrombin; format: biochemical; design: with recombinant thrombin (15 nM; Haematologic Technologies); purchased Haematologic Technologies; conditions: inhibitor 100 μM
# Swiss Webster mice = assay: Thromboplastin-induced thrombosis, VT750-fibrin(ogen) deposition in organs; format: in vivo; conditions: bivalirudin 10 mg/kg i.v. five minutes prior to thromboplastin
# Protocol: Characterization of thromboplastin-induced thrombosis: Each vial of thromboplastin containing 3-4 mg (from rabbit brain, Sigma) was dissolved in 2 mL of PBS. To quantify fibrin deposition, bovine fibrinogen (Sigma) was reacted with 3-fold molar excess of VT750 for 1 hr at RT, and purified by centrifugal size filtration (size cutoff, Millipore). Swiss Webster mice (Taconic) were lightly anesthetized with isofluorane and administered mixtures of VT750-fibrinogen (1 nmol by VT750) with thromboplastin (n=3 mice per dose) via tail vein injections. After 30 minutes, mice were euthanized by CO2 asphyxiation and organs were scanned on the LI-COR Odyssey Infrared Imaging System. Fibrin(ogen) fluorescence in each organ was quantified using ImageJ software (NIH). To test thrombin inhibition, mice were intravenously administered bivalirudin (10 mg/kg) five minutes prior to co-injection of thromboplastin. […]
# We next investigated the ability of the synthetic biomarkers to detect thrombosis in living mice induced via intravenous (i.v.) administration of thromboplastin. […] To quantify PE formation, mice were co-injected with thromboplastin and the clot precursor fibrinogen (labeled with the near-infrared fluorophore VT750) so that the formation of fibrin clots by thrombin-mediated proteolysis of fibrinogen could be quantified by fluorescence analysis of whole organs (FIG. 3A). […]
# thrombin [2] = biological target: T2, thrombin (Mus musculus, UniProt P19221); assay: Urinary monitoring of thromboplastin-induced thrombosis by ELISA; format: in vivo, mice; conditions: bivalirudin 10 mg/kg; thromboplastin 2 μl per g b.w.
# T2 construct: from tissue; host or cells: blood and pulmonary thrombi of live Swiss Webster mice (thromboplastin or collagen/epinephrine induced)
# Protocol: ELISA detection of bifunctionalized reporters: 96-well plates (Thermo Scientific) were incubated with either 0.8 μg/mL of anti-Flsc (GeneTex, GTX19224) or 0.4 μg/mL of anti-Alex Fluor 488 (Invitrogen, A11094) diluted in PBS overnight at 4° C. Plates were blocked with 1% w/v bovine serum albumin (Sigma) in PBS for 1 hr before 100 μL of samples were added. Reporters captured on the plate were then detected by adding 100 μL of 0.2 μg/mL neutravidin-HRP (Pierce), developed with 50 μL TMB solution (Thermo Scientific) for 5-15 minutes and quenched with 50 μL of HCl before the absorbance of the wells was determined by microplate analysis (SpectraMax Plus, Molecular Devices) at 450 nm. Plates were washed 3× with PBST between each steps and incubation occurred at RT unless otherwise stated.
# Urinary monitoring of thrombosis. Experiments were conducted in a paired setup. […] Urine samples were stored at −80° C. until ELISA analysis.
# The concentration of analytes in the urine is mainly dependent on the hydration state of the host (ranging from 50-1200 mOsm/kg H2O in humans)^[20] and is affected by many external factors (e.g. circadian rhythm, diet, activity, and others). […]
# thrombin [3] = biological target: T1, thrombin; assay: Fluorogenic NW assay with purified thrombin; format: biochemical; design: mixed with human thrombin (2 μM); purchased Haematologic Technologies; conditions: bivalirudin 5 mg/mL, pre-incubated two minutes
# Protocol: In vitro protease assays: NWs (200 nM by peptide) were mixed with human thrombin (2 μM), FVIIa (10 nM), FIXa (90 nM), FXa (160 nM), FXIa (31 nM), and activated protein C (60 nM, Haematologic Technologies) in a 384-well plate at 37° C. in activity buffers according to the manufacturer's instructions and monitored with a microplate reader (SpectroMax Gemini EM). […] For thrombin inhibition experiments, bivalirudin (Anaspec) was added to a final concentration of 5 mg/mL and pre-incubated for two minutes prior to addition of NWs.
# To test substrate specificity, fluorophore-labeled derivatives were conjugated onto NWs at a valency sufficient to produce homoquenched substrates (˜40 peptides per NW) and then incubated the NWs with purified thrombin or a panel of blood clotting proteases (FXa, APC, FIXa, FVIIa, FXIa), each present at its maximal physiological concentration during thrombosis (FIG. 1B).
# thrombin [4] = biological target: T2, thrombin; assay: Urinary reporters in collagen/epinephrine thrombosis model by ELISA and LFA; format: in vivo, mice
# Protocol: Collection and analysis of urinary peptides. […] Urine collection times were optimized from previous studies using these disease models^[30, 31] and are dependent on site of disease and rate of enzymatic substrate cleavage. Reporter concentration in unprocessed urine was assayed by above protocols from urine diluted 1:10^2L10^4 for ELISA or 1:4-5 for LFA. Data was analyzed using receiver-operator characteristic (ROC) curves (both) and Wilcoxon signed rank test (CRC) or Mann-Whitney test (thrombosis).
# Immediately following infusion, mice were placed over 96-well plates enclosed by a cylindrical tube to collect urine for 30 m (thrombosis model) or 1 h (tumor model). Urine collection times were optimized from previous studies using these disease models^[30, 31] and are dependent on site of disease and rate of enzymatic substrate cleavage. Urine was stored at −80° C. directly following collection.
# Unprocessed urine was diluted (1:100-1:10,000) in 1× PBS with 1% w/v BSA and reporters were quantified by ELISA (at least 2 replicates) using standards as described above. Urine was applied to lateral flow test strips in 5 μL volume, at 1:4 (thrombosis model) or 1:5 (CRC model) dilution. Lateral flow tests were performed in triplicate as described above and test strips were allowed to dry and were quantified by automated script as described above. ELISA and LFA data was analyzed using a Wilcoxon signed rank test (CRC) and a Mann-Whitney test (thrombosis).
# Urine concentration is dependent on many host and environmental factors (e.g. diet, activity level, medical history, circadian rhythm); therefore, we sought to develop a normalization strategy for the test. It was hypothesized that co-administered free reporters would pass into the urine independent of disease state and could be used to normalize the level of reporters released by protease activity.
# thrombin [5] = biological target: T1, thrombin; format: biochemical; design: with recombinant thrombin (15 nM; Haematologic Technologies); purchased Haematologic Technologies; conditions: R3 in tandem with thrombin-sensitive substrate on NWs; vs samples not exposed to thrombin
# MMP9 = biological target: T3, MMP9 (Homo sapiens, UniProt P14780); assay: Fluorogenic NW assay with recombinant MMP9; format: biochemical; conditions: inhibitor 100 μM
# T3 construct: purchased R&D Systems
# Protocol: Fluorescent reporter-bound thrombin- or MMP-sensitive NWs (substrates PLGLRSW, SEQ ID NO: 3, or PLGVRGK, SEQ ID NO: 4, respectively) were introduced to recombinant thrombin or MMP9 (respectively). Release of homoquenched fluorophores upon proteolysis was read as increased fluorescence by plate reader at 37° C. Inhibitors Argatroban or Marimastat were incubated with the protease-NW cocktail at 100 μM. To quantify reporter release by LFA, reporter-functionalized NWs were incubated with cognate proteases, passed through a 30 kDa MW cutoff filter, quantified by LFA, and analyzed by Mann-Whitney test.
# (SpectroMax Gemini EM microplate reader). Argatroban (Sigma) or Marimastat (Tocris) were incubated with the NW-protease cocktail at 100 μM final concentration. To assay proteolytic reporter release by LFA, reporter-functionalized enzyme sensitive NWs were incubated with MMP9 or thrombin as above at 37° C. for four hours and passed through a 30 kDa MW cutoff centrifugal filter. The filtered reporters were diluted to within LFA dynamic range and assayed by LFA as described below. Reporter stability experiments were performed using reporter 3 (1 μM) mixed in 1% w/v BSA with recombinant thrombin or MMP9 (both 15 nM) as above to 100 μL final volume and were incubated at 37° C. for 1 h. […]
# MMP = assay: Urinary reporters in LS174T colorectal tumor model by ELISA and LFA; format: in vivo, mice; conditions: urine test, ELISA
# Protocol: Collection and analysis of urinary peptides. […] Reporter concentration in unprocessed urine was assayed by above protocols from urine diluted 1:10^2L10^4 for ELISA or 1:4-5 for LFA. Data was analyzed using receiver-operator characteristic (ROC) curves (both) and Wilcoxon signed rank test (CRC) or Mann-Whitney test (thrombosis).
# Immediately following infusion, mice were placed over 96-well plates enclosed by a cylindrical tube to collect urine for 30 m (thrombosis model) or 1 h (tumor model). […] Urine was stored at −80° C. directly following collection.
# T3 sequence (P14780 94-707, species assumed): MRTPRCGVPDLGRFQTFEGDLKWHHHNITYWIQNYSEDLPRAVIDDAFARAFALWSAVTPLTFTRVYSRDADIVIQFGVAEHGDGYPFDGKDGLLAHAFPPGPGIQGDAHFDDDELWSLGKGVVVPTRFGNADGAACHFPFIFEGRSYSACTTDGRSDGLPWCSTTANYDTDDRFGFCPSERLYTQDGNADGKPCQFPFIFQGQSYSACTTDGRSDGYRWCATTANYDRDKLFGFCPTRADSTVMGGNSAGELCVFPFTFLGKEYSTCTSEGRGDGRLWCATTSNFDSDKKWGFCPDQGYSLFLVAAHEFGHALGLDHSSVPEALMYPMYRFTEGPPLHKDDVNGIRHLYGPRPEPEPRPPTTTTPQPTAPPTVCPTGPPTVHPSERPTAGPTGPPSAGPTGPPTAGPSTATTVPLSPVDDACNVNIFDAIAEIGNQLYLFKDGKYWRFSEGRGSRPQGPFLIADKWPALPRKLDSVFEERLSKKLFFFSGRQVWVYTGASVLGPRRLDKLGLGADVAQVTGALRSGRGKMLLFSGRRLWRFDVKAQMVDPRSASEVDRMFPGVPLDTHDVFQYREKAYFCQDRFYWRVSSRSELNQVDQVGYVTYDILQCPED
molecule,measurement,setting,value
CC1CNc2c(cccc2S(=O)(=O)N[C@@H](CCCNC(=N)N)C(=O)N2CC[C@@H](C)C[C@@H]2C(=O)O)C1 (stereo partly shown) [Argatroban],fluorescence of thrombin-sensitive NWs with thrombin in presence of inhibitor,thrombin [1],No increase in fluorescence
bivalirudin,formation of PEs in pretreated animals,Swiss Webster mice,readily prevented
same,urinary reporter levels in mice treated with inhibitor prior to thrombotic challenge,thrombin [2],abrogated
same,proteolysis of NWs by thrombin in the presence of inhibitor,thrombin [3],negligible proteolysis
TMR-GluFib-Biotin [Reporter R3],urinary level of reporter normalized against R4 in mice harboring thrombi,thrombin [4]; ELISA,significantly increased
same,urinary level of reporter of thrombin activity in mice harboring thrombi,"thrombin [4]; ELISA, quantified independently",significantly increased
same,ratio of R3/R4 in diseased urine vs healthy controls,thrombin [4]; multiplexed paper strip (LFA),statistically significant increase
same,detection of cleaved reporter from filtrate by LFA after thrombin cleavage,thrombin [5],readily detected
CNC(=O)[C@@H](NC(=O)[C@H](CC(C)C)[C@H](O)C(=O)NO)C(C)(C)C [Marimastat],activity of MMP9 on MMP-sensitive NWs in presence of inhibitor,MMP9,no activity
"MMP-sensitive NWs: PEG-coated iron oxide nanoworms with MMP9-cleavable substrate PLGVRGK and fluorescein, VT750 or R2 reporter (also: on PEG-coated iron oxide nanoworms, fluorescein, VT750 or R2 reporter)","ROC a.u.c, discrimination of CRC",MMP,0.90

# Reference: US11977074B2, “Affinity-based detection of ligand-encoded synthetic biomarkers” (Massachusetts Institute of Technology, priority 2013, dated 2024)
